This passage reports Ki results from patent publication US20150175655A1 (priority 2012, published 2015).

The first test has as its target T1, NS3 genotype 3a protease (UniProt Q81258).
T1 construct: Purified NS3 protease domain (amino acids 1-181) of the genotype 1b and 3a virus were generated as above; fused on or other part: N-terminal hexahistidine tag and rTEV protease cleavage site (vector p28-N6H-Tev-NS3(181)3)
T1 sequence (Q81258 1033-1663): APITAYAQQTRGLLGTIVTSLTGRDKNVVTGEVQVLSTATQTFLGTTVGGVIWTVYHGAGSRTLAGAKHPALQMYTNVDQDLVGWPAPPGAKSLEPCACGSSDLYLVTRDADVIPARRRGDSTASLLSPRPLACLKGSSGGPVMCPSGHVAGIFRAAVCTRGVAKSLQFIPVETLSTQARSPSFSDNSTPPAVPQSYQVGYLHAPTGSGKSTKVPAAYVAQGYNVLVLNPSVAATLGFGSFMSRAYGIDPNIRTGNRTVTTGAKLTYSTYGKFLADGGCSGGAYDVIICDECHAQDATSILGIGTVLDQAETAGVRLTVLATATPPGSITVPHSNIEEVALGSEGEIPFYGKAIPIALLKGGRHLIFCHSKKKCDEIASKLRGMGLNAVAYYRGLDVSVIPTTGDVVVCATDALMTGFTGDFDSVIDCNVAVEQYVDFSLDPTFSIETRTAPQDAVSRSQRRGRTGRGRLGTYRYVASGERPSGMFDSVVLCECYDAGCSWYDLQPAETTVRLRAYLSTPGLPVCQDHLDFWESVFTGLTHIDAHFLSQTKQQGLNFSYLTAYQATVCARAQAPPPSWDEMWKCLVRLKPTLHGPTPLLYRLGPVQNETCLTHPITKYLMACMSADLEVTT
Description: Ki determination, NS3 protease genotype 3a (fluorogenic depsipeptide substrate). Type of test: biochemical, hepatitis C virus. The conditions noted are these: 200 pM enzyme, 20 μM NS4A peptide, 2 μM substrate, read-out: Ki 3A. An excerpt:
The coding sequences for the genotype 3 HCV protease domain was amplified by RT-PCR using a Titan One Tube RT-PCR Kit (Roche, Indianapolis, Ind.) and RNA extracted from HCV-positive human serum (BBI Diagnostics, MA) using a QIAmp UltraSens Virus Kit (Qiagen, Valencia, Calif.). 5′ PCR primers were designed to encode N-terminal hexahistidine tags and to insert in-frame rTEV protease cleavage sites into the NS3 protease coding sequences. The resulting DNA fragments were cloned into pET28 yielding the expression vectors p28-N6H-Tev-NS3(181)1a and p28-N6H-Tev-NS3(181)3, respectively.
BL21AI bacteria (Invitrogen, Carlsbad, Calif.) were transformed with genotype 1b or 3 NS3 expression vectors and used to inoculate a 20 L fermentation vessel (Sartorius BBI System Inc., Bethlehem, Pa.), containing 18 L of fresh 2YT medium supplemented with 50 μg/mL kanamycin. When cell densities reached an OD600 of 1, the temperature of the cultures was reduced from 37° C. to 28° C. and induction was immediately initiated by the addition of 30 μM ZnSO4, 14 mM L-arabinose and 1 mM Isopropyl β-D-thiogalactoside (IPTG) final concentrations. Cells were harvested by centrifugation four hours post-induction and were stored as frozen pellets at −80° C. prior to NS3 protein purification.
Bacterial pellets collected from the expression of genotype 3 HCV NS3 protease were homogenized in Lysis Buffer (25 mM tris, pH 7.5 buffer containing 150 mM NaCl and 1 mM phenylmethanesulfonyl fluoride (PMSF)) and passed through a microfluidizer at 18,000 pounds/in^2. Homogenized cell lysates were centrifuged at 30,000×g for 30 minutes at 4° C. The resulting P1 pellets were washed with Wash Buffer I (25 mM tris, pH 7.5 containing 1% CHAPS) followed by centrifugation at 10,000×g for 30 minutes at 4° C. […] The resulting P3 pellets were resuspended in Solubilization Buffer (20 ml of 25 mM tris, pH 7.5 containing 150 mM NaCl and 8 M urea) and incubated at 4° C. for one hour. Solubilized proteins were passed through a 0.45 micron filter. Protein concentrations were measured and the solutions were adjusted to 40 mM DTT, incubated for 30 minutes at 4° C. and then quickly diluted into Refolding Buffer (25 mM tris, pH 8.5, 0.8 M Guanidine-HCl, 0.4 M L-Arginine, 10 mM ZnSO4) while stirring. Protein solutions were incubated at 4° C. overnight to allow refolding. Refolded proteases were centrifuged at 30,000×g for 10 minutes to remove residual precipitates. Final protein concentrations were then measured and the NS3 proteases were aliquoted, snap frozen in liquid nitrogen and stored at −80° C.
Purified NS3 protease domain (amino acids 1-181) of the genotype 1b and 3a virus were generated as above. The internally quenched fluorogenic depsipeptide substrate Ac-DED(Edans)-EEAbuψ[COO]ASK(Dabcyl)-NH2 and a synthetic peptide containing the hydrophobic core residues of the NS4A protein cofactor ([…]; NS4A peptide) were obtained from Anaspec, Inc. (San Jose, Calif.). Other chemicals and biochemicals were of reagent grade or better and were purchased from standard suppliers.
Reactions were run at room temperature in buffer consisting of 50 mM HEPES, 40% glycerol, 0.05% Triton X-100, 10 mM DTT, and 10% DMSO. The final assay solutions contained 50 pM NS3 genotype 1b protease or 200 pM genotype 3a protease, 20 μM NS4A peptide, and 4 μM substrate (genotype 1 b) or 2 μM substrate (genotype 3a). Inhibitor concentrations varied from 100 nM to 5 pM in 3-fold dilutions, and no-inhibitor controls were included.
Compound dilutions were made in DMSO at 20× final concentration. Reaction mixtures were prepared in 96-well assay plates. A solution of enzyme and NS4A peptide in assay buffer (25 μL volume with both reagents at 4× final concentration) was mixed with 45 μL assay buffer and 5 μL of either inhibitor or DMSO, and pre-incubated at room temperature for 1 hour. The reaction was started by addition of 25 μL substrate solution at 4× final concentration. […]
Take `COc1ccc2nc3c(nc2c1)O[C@H]1CN(C(=O)[C@H](C(C)(C)C)NC(=O)O[C@@H]2CCC[C@H]2CCCCC3)[C@H](C(=O)N[C@]2(C(=O)NS(=O)(=O)C3CC3)C[C@H]2C(F)F)[C@@H]1C` [Example 28, (3aR,7S,10S,11S,12R,24aR)-7-tert-butyl-N-[(1R,2R)-1-[(cyclopropylsulfonyl)carbamoyl]-2-(difluoromethyl)cyclopropyl]-16-methoxy-11-methyl-5,8-dioxo-1,2,3,3a,5,6,7,8,11,12,20,21,22,23,24,24a-hexadecahydro-10H-9,12-methanocyclopenta[18,19][1,10,3,6]dioxadiazacyclononadecino[11,12-b]quinoxaline-10-carboxamide]: the inhibition constant (Ki) was 80 pM.
On the same count and under the same terms, for `CC[C@@H]1[C@@H]2CN(C(=O)[C@H](C(C)(C)C)NC(=O)O[C@@H]3C[C@H]3CCCCC(F)(F)c3nc4ccc(OC)cc4nc3O2)[C@@H]1C(=O)N[C@]1(C(=O)NS(=O)(=O)C2CC2)C[C@H]1CC` [Example 34, (1aR,5S,8S,9S,10R,22aR)-5-tert-butyl-N-{(1R,2R)-1-[(cyclopropylsulfonyl)carbamoyl]-2-ethylcyclopropyl}-9-ethyl-18,18-difluoro-14-methoxy-3,6-dioxo-1,1a,3,4,5,6,9,10,18,19,20,21,22,22a-tetradecahydro-8H-7,10-methanocyclopropa[18,19][1,10,3,6]dioxadiazacyclononadecino[11,12-b]quinoxaline-8-carboxamide] the value was 280 pM; for `CC[C@@H]1[C@@H]2CN(C(=O)[C@H](C(C)(C)C)NC(=O)O[C@@H]3C[C@H]3CCCCC(F)(F)c3nc4ccc(OC)cc4nc3O2)[C@@H]1C(=O)N[C@]1(C(=O)NS(=O)(=O)C2(C)CC2)C[C@H]1CC(F)F` [Example 35, (1aR,5S,8S,9S,10R,22aR)-5-tert-butyl-N-[(1R,2S)-2-(2,2-difluoroethyl)-1-{[(1-methylcyclopropyl)sulfonyl]carbamoyl}cyclopropyl]-9-ethyl-18,18-difluoro-14-methoxy-3,6-dioxo-1,1a,3,4,5,6,9,10,18,19,20,21,22,22a-tetradecahydro-8H-7,10-methanocyclopropa[18,19][1,10,3,6]dioxadiazacyclononadecino[11,12-b]quinoxaline-8-carboxamide], 230 pM.

The test is the same for the next values; noted with them: read-out: Ki 3A, 200 pM enzyme, 20 μM NS4A peptide, 2 μM substrate.
For the compound `CC[C@@H]1C[C@]1(NC(=O)[C@@H]1[C@H](C)[C@@H]2CN1C(=O)[C@H](C(C)(C)C)NC(=O)O[C@@H]1C[C@H]1CCCCCc1nc3ccc(OC)cc3nc1O2)C(=O)NS(=O)(=O)C1(C)CC1` [Example 21, (1aR,5S,8S,9S,10R,22aR)-5-tert-butyl-N-[(1R,2R)-2-ethyl-1-{[(1-methylcyclopropyl)sulfonyl]carbamoyl}cyclopropyl]-14-methoxy-9-methyl-3,6-dioxo-1,1a,3,4,5,6,9,10,18,19,20,21,22,22a-tetradecahydro-8H-7,10-methanocyclopropa[18,19][1,10,3,6]dioxadiazacyclononadecino[11,12-b]quinoxaline-8-carboxamide], the inhibition constant (Ki) came out at 450 pM.
Consider `COc1ccc2nc3c(nc2c1)O[C@H]1CN(C(=O)[C@H](C(C)(C)C)NC(=O)O[C@@H]2C[C@H]2CCCCC3)[C@H](C(=O)N[C@]2(C(=O)NS(=O)(=O)C3CC3)C[C@H]2CCF)[C@@H]1C` [Example 22, (1aR,5S,8S,9S,10R,22aR)-5-tert-butyl-N-[(R1R,2S)-1-[(cyclopropylsulfonyl)carbamoyl]-2-(2-fluoroethyl)cyclopropyl]-14-methoxy-9-methyl-3,6-dioxo-1,1a,3,4,5,6,9,10,18,19,20,21,22,22a-tetradecahydro-8H-7,10-methanocyclopropa[18,19][1,10,3,6]dioxadiazacyclononadecino[11,12-b]quinoxaline-8-carboxamide], for which the Ki came to 1300 pM.
On the same count and under the same terms, the same measure for `COc1ccc2nc3c(nc2c1)O[C@H]1CN(C(=O)[C@H](C(C)(C)C)NC(=O)O[C@@H]2C[C@H]2CCCCC3)[C@H](C(=O)N[C@]2(C(=O)NS(=O)(=O)C3(C)CC3)C[C@H]2CCF)[C@@H]1C` [Example 23, (1aR,5S,8S,9S,10R,22aR)-5-tert-butyl-N-[(1R,2S)-2-(2-fluoroethyl)-1-{[(1-methylcyclopropyl)sulfonyl]carbamoyl}cyclopropyl]-14-methoxy-9-methyl-3,6-dioxo-1,1a,3,4,5,6,9,10,18,19,20,21,22,22a-tetradecahydro-8H-7,10-methanocyclopropa[18,19][1,10,3,6]dioxadiazacyclononadecino[11,12-b]quinoxaline-8-carboxamide]: 1100 pM; for `COc1ccc2nc3c(nc2c1)O[C@H]1CN(C(=O)[C@H](C(C)(C)C)NC(=O)O[C@@H]2C[C@H]2CCCCC3)[C@H](C(=O)N[C@]2(C(=O)NS(=O)(=O)C3CC3)C[C@H]2CC(F)F)[C@@H]1C` [Example 24, (1aR,5S,8S,9S,10R,22aR)-5-tert-butyl-N-[(1R,2S)-1-[(cyclopropylsulfonyl)carbamoyl]-2-(2,2-difluoroethyl)cyclopropyl]-14-methoxy-9-methyl-3,6-dioxo-1,1a,3,4,5,6,9,10,18,19,20,21,22,22a-tetradecahydro-8H-7,10-methanocyclopropa[18,19][1,10,3,6]dioxadiazacyclononadecino[11,12-b]quinoxaline-8-carboxamide]: 920 pM; for `COc1ccc2nc3c(nc2c1)O[C@H]1CN(C(=O)[C@H](C(C)(C)C)NC(=O)O[C@@H]2C[C@H]2CCCCC3)[C@H](C(=O)N[C@]2(C(=O)NS(=O)(=O)C3(C)CC3)C[C@H]2CC(F)F)[C@@H]1C` [Example 25, (1aR,5S,8S,9S,10R,22aR)-5-tert-butyl-N-[(1R,2S)-2-(2,2-difluoroethyl)-1-{[(1-methylcyclopropyl)sulfonyl]carbamoyl}cyclopropyl]-14-methoxy-9-methyl-3,6-dioxo-1,1a,3,4,5,6,9,10,18,19,20,21,22,22a-tetradecahydro-8H-7,10-methanocyclopropa[18,19][1,10,3,6]dioxadiazacyclononadecino[11,12-b]quinoxaline-8-carboxamide]: 390 pM.

A word on the Ki: it is a measure of affinity in units of concentration, obtained from inhibition or displacement.
